In paper PMC12481569, “Novltex: A New Class of Antibiotics with Potent Activity against Multidrug-Resistant Bacterial Pathogens–Design, Synthesis, and Biological Evaluation” (Journal of Medicinal Chemistry, 2025):
Positions of bridges follow the written chain, without caps; N, C: chain ends. Non-standard residues stand in square brackets, D forms with d. Residues, ends and D or L forms follow the SMILES beside them. dCha = N[C@H](CC1CCCCC1)C(=O)O

Assays:
[1] = test system: HEK293T; test: Cytotoxicity, MTS-based assay; format: cell-based, human; settings: up to 50 μg/mL, 24 or 48 h, three independent experiments in triplicate
Experimental: (§1) 4 Cytotoxicity evaluation of analogue 12. Human primary dermal fibroblasts (A), liver cell line HepG2 (B), and kidney cell line HEK293T (C) cells (5 × 10^3 cells/well in 96-well plates) were treated with increasing concentrations of analogue 12 or 1 μM staurosporine (STS, used as a positive toxicity control) for 24 or 48 h, as indicated. Viability of cells was determined using an MTS-based assay. Results (% cell viability) are the mean ± SD of three independent experiments performed in triplicate. (D) Freshly collected human red blood cells (RBCs) were exposed to increasing concentrations of 12 or Triton X-100 (TX), as indicated, for 1 h. Hemolytic activity (% hemolysis) was determined by spectrophotometrically measuring the release of hemoglobin compared to that with TX (used as a positive control). Results are the mean ± SD of 4 independent experiments performed in duplicate using blood samples from four different anonymous healthy donors. […]
(§2) Bacterial cultures were grown overnight on Mueller-Hinton Agar (MHA) plates and adjusted to a final inoculum of 10^5 – 10^6 CFU/mL. […] MIC values were determined in the media contain ing polysorbate 80 (0.002%, v/v) to prevent non -specific adsorption of the peptides to plastic surfaces. […] All the experiments were performed in two independent duplicates and the MIC was determined as the lowest concentration in which no visible growth was observed. […]

[2] = test system: HepG2; test: Cytotoxicity, MTS-based assay; format: cell-based, human; settings: up to 50 μg/mL, 24 or 48 h, three independent experiments in triplicate
Experimental: as §1, §2

[3] = test system: MRSA DM21455; test: Cytoplasmic membrane potential DiSC3(5) assay; format: cell-based, Staphylococcus aureus; settings: 1× to 16× MIC, 1 h, room temperature, ex 622/em 670 nm; pronounced at 4× MIC
Experimental: To determine whether the bactericidal activity of analogue 12 is linked to bacterial membrane perturbations, we performed a DiSC3(5) assay, which utilizes a membrane-potential-sensitive dye to assess cytoplasmic membrane depolarization of MRSA. […]
day, cells were treated in triplicates with increasing concentrations of Novltex analogue 12, as indicated in the corresponding figure and the figure legend (Figure 4A-C). Cells were treated with 1 µM Staurosporine (MedChemExpress #HY-15141) as a positive kill control. Cell viability assessed after 24 h or 48 h incubation using an MTS-based CellTiter 96® AQueous One Solution Cell Proliferation Assay (Promega #G3582, Southampton UK) as per manufacturer’s instructions. Absorbance was recorded at 490 nm. Relative cell viability was determined by subtracting the blank (cell culture medium and MTS only) from individual values before normalizing against the untreated control.
Anonymized human blood samples were received from the Health Sciences Authority, Singapore and used as per the institutional guidelines and approved by the Institutional Review Board (IRB -2023-1019) of Nanyang Technological University Singapore. […] The supernatant was transferred to a new 96-well microplate and the absorbance was measured at 576 nm in the Infinite M200 monochromator microplate reader (Tecan Group Ltd., Switzerland). […]

## CC(C)C[C@@H]1NC(=O)[C@H](C)NC(=O)[C@H](NC(=O)[C@H](CO)NC(=O)[C@@H](CCCCN)NC(=O)[C@@H](CC2CCCCC2)NC(=O)[C@@H](N)Cc2ccccc2)[C@H](C)OC(=O)[C@H](CC(C)C)NC1=O [analogue 12, Leu2Cha–Novltex] (H-F[dCha][dK]S[dT]ALL; ester 5-C)
[1]
  cytotoxicity (cell viability), HEK293T: no major cytotoxicity
[2]
  cytotoxicity (cell viability), HepG2: no major cytotoxicity
[3]
  change in DiSC3(5) fluorescence intensity (membrane depolarization): substantial increase in fluorescence intensity
